Literature values in patent US20220251295A1 (DYNAMIC BIOLOGICS INC., priority 2019, published 2022).

Legend:
[1] = Phase III clinical trials
[2] = administered with levodopa
[3] = levodopa alone

SMILES: CCOC(=O)[C@@H](N)Cc1ccc(O)c(O)c1 [Etilevodopa]
- efficacy compared with Levodopa [1]: less efficacious than Levodopa

SMILES: C[C@@](Cc1ccc(O)c(O)c1)(NN)C(=O)O [carbidopa]
- reduction of the amount of levodopa required to produce a given response [2]: 75%

SMILES: N[C@@H](Cc1ccc(O)c(O)c1)C(=O)O [levodopa, (S)-2-amino-3-(3,4-dihydroxyphenyl)propanoic acid]
- Plasma half-life of levodopa [3]: ~50 min
